Test results reported in article PMC5159881 (Nature Communications, 2016).
Several values for one entry are separate records, joined by “and”; a condition that tells them apart may be missing. Equal values may be shown once.

Assays:
in vivo = conditions: rat; for half-life: plasma
Method: Pharmacokinetic studies in vivo[37] and CYP-associated metabolic studies in vitro[56] were performed using the method reported previously in our laboratory. […] The incubation system, sample preparation and chromatography conditions are as described previously.
A simple and sensitive method for the determination of AIL in plasma was developed, using high-performance liquid chromatography-tandem mass spectrometry (HPLC-MS/MS). Brusatol was used as an internal standard. […] The details of this HPLC-MS/MS method and sample preparation are described in our previous study.
The statistical analysis was performed by SPSS 22.0 software. The differences between control group and experimental groups were determined by one-way analysis of variance. Since treatment and time course was investigated, two-way analysis of variance followed by post hoc test was also applied. Data were expressed as mean and s.d., and P<0.05 was considered significant. Pharmacokinetic parameters were calculated by WinNonlin software version 5.2.1 (Pharsight Corporation, Mountain View, USA) based on noncompartmental analysis. […]
Pharmacokinetic study of ailanthone in rats
Sprague-Dawley rats (purchased from Shanghai SLAC laboratory animal Co. Ltd., Shanghai, China) were fasted for 12 h with free access to water prior to the pharmacokinetic study. The rats were randomized into two groups for oral administration (5mg/kg) and intravenous injection (1mg/kg). Blood samples were collected from the orbital plexus into heparinized centrifuge tubes at fifteen different time points between 5 min to 36 h for the oral administration group and nine time points between 5 min to 6 h for the intravenous one. The pharmacokinetic parameters were calculated by WinNonlin software version 5.2.1 based on noncompartmental analysis. Oral bioavailability was calculated as F (%) = AUC0-∞(p.o.) / AUC0-∞(i.v.) × Dose (i.v.) / Dose (p.o.). […]
Supplementary Figure 9C). […]

LNCaP-MDV3100-R cells = test: SRB cell growth assay, LNCaP-MDV3100-R; type: cell-based, human; conditions: 72 h, 20 μM
Method: Cell growth was determined by SRB assay.
the SRB assay (n = 5). The half maximal inhibitory concentration (IC50) was calculated using GraphPad Prism 5.0 (GraphPad, San Diego, CA).

22RV1 xenografts = test: 22RV1 subcutaneous xenograft in BALB/c-nude mice; type: in vivo, mouse; conditions: 10 mg kg^−1 per day BIC or 2 mg kg^−1 per day AIL, i.p.
LNCaP xenografts = test: LNCaP subcutaneous xenograft in BALB/c-nude mice; type: in vivo, mouse; conditions: 10 mg kg^−1 per day BIC or 2 mg kg^−1 per day AIL, i.p.
Method: (§1) (a–c) 22RV1 (a), LNCaP (b) and VCaP (c) cells suspended in 0.1 ml PBS (22RV1) or matrigel (LNCaP, VCaP) were injected into the right flank of BALB/c-nude mice. Androgen containing blocks were subcutaneously inserted into each mouse in the LNCaP and VCaP xenograft models. […] The control group was injected with DMSO. Tumour volume and the mouse body weight were measured twice per week.
(§2) BALB/c-nude mice (6–8-weekold, male) were purchased from the Sino-British Sippr/BK Lab Animal Co., Ltd (Shanghai, China) and maintained under pathogen-free conditions. The animal use protocol was approved by the Institutional Animal Care and Use Committee of East China Normal University. The 22RV1, LNCaP and VCaP xenograft tumour models were developed by injecting 3 × 10^6 22RV1 cells or 5 × 10^6 LNCaP or VCaP cells in suspension into the right flank of a BALB/c-nude mouse; cells were suspended in 100 μl PBS or 50% matrigel (LNCaP and VCaP), respectively. Specifically for LNCaP and VCaP cells, continuous release testosterone pellets (15 mg testosterone per pellet, Sigma-Aldrich) were implanted subcutaneously to stimulate the growth of LNCaP and VCaP xenografts. […] The tumour volume and mouse body weight were measured twice a week. The tumour volume was calculated using the following equation: tumour volume (V)=length × width × width × 0.52. […]
(§3) Tumor volume and the mouse body weight were measured once a week. […]

LNCaP cells = test: SRB cell growth assay, LNCaP; conditions: androgen-starved LNCaP, 0.1 nM R1881, 96 h; 10 μM BIC, 10 μM MDV, 0.1-0.4 μM AIL
c4-2b cells = test: SRB cell growth assay, c4-2b; conditions: R1881, 96 h, 10 μM
22RV1 cells = test: SRB cell growth assay, 22RV1; conditions: 22RV1, R1881, 96 h, 10 μM
HSP90 and HSP70 = test: Western blotting of HSP90 and HSP70 protein levels in LNCaP and 22RV1 cells; type: cell-based, human; conditions: 12 h
AR protein = test: Western blotting of AR protein level in PCa cell lines; type: cell-based, human; conditions: LNCaP, 22RV1, LNCaP-MDV3100-R and VCaP cell lines (CEL: LNCaP and 22RV1, 12 h)
Text: Scale bars, 10 μm. […] Scale bars, 20 μm.

VCaP xenografts = test: VCaP subcutaneous xenograft in BALB/c-nude mice; type: in vivo, mouse; conditions: 2 mg/kg AIL or 10 mg/kg MDV, i.p.
Method: as §1, §2, §3

[1] = test system: 22RV1-luc orthotopic xenografts; test: Orthotopic castration-resistant prostate cancer model (22RV1-luc, castrated mice); type: in vivo, mouse; conditions: i.p. once per day, 28 days, AIL 2 mg kg^−1 (95% CI 70–95%), MDV 10 mg kg^−1 (95% CI 0–36%)
Method: (d) Male BALB/c-nude mice were anaesthetized, and the dorsolateral prostate was injected with 22RV1-luc cells in matrigel. […] Tumours were imaged every week to determine local tumour growth and evidence of tumour cell dissemination. Representative images of three mice per group were illustrated (n=5). (e) After 28 days, mice were killed and local tumours and viscera of the mice were imaged to determine tumour growth and evidence of tumour cell dissemination.
For orthotopic castration-resistant prostate cancer xenografts, male BALB/c-nude mice (8–9 weeks of age) were anaesthetized using 150 mg kg^−1 2, 2, 2-tribromethanol plus 350 mg kg^−1 tert-amyl alcohol and then 5 × 10^5 22RV1-luc cells suspended in 30 μl 50% matrigel were surgically injected into the dorsolateral prostate lobes. One week after injection, the tumour-bearing mice were castrated and randomly assigned to three groups. […] Prostate tumour growth and local metastasis were monitored weekly using the IVIS Imaging System (Xenogen Corporation, Alameda, CA). Images and measurements of bioluminescent signals were acquired and analysed using Living Image and Xenogen software[52].

PSA mRNA = test: Quantitative-PCR of PSA mRNA in 22RV1 cells; conditions: 12 h
Method: Total RNA was extracted using TRIzol (Takara, Japan) according to the manufacturer's instructions. One microgram of total RNA was used for complementary DNA synthesis using a cDNA reverse transcription kit (Takara, Japan). Real-time PCR was performed in triplicate using gene-specific primers on a Stratagene Mx3005P PCR system (Agilent Technologies) machine. The mRNA expression levels were normalized to β-actin expression or GAPDH.

[2] = Sprague-Dawley, in vivo, iv, 1 mg/kg
[3] = Sprague-Dawley, in vivo, po, 5 mg/kg

## C=C1[C@@H](O)[C@]2(O)OC[C@]34[C@H]2[C@@]2(C)[C@H](O)C(=O)C=C(C)[C@@H]2C[C@H]3OC(=O)C[C@@H]14 [AIL, Ailanthone]
In vivo; Sprague-Dawley, in vivo
  bioavailability: 25.7%
In vivo; [2]
  AUC(0-inf): 1030 ng·h/mL
  AUC(0-t): 965 ng·h/mL
  C0: 1650 ng/mL and 4.39 µM
In vivo; [3]
  AUC(0-inf): 1320 ng·h/mL
  AUC(0-t): 1120 ng·h/mL
  Cmax: 87 ng/mL and 231 nM
  Tmax: 0.388 h
In vivo; iv, i.v. 1 mg kg^−1, n=6, mean±s.d.
  half-life: 1.89 ± 0.66 h
In vivo; po, p.o. 5 mg kg^−1, n=6, mean±s.d.
  half-life: 12.2 ± 2.6 h

## CC(O)(CS(=O)(=O)c1ccc(F)cc1)C(=O)Nc1ccc(C#N)c(C(F)(F)F)c1 (centres unmarked) [BIC, bicalutamide]
LNCaP-MDV3100-R cells
  cell growth (SRB): totally resistant
22RV1 xenografts
  tumour growth: resistant
LNCaP xenografts
  tumour volume: significantly reduced the tumour volume
LNCaP cells
  cell growth (SRB): effectively blocked cell growth
c4-2b cells
  cell growth (SRB): could not significantly inhibit cell growth
22RV1 cells
  cell growth (SRB): could not significantly inhibit cell growth

## C=CCNC1=C2C[C@@H](C)C[C@H](OC)[C@H](O)[C@@H](C)/C=C(\C)[C@H](OC(N)=O)[C@@H](OC)/C=C\C=C(/C)C(=O)NC(=CC1=O)C2=O [17-AAG]
HSP90 and HSP70
  HSP90 and HSP70 protein levels: induced upregulation

## CC1=C(O)C(=O)C=C2C1=CC=C1[C@@]2(C)CC[C@@]2(C)[C@@H]3C[C@](C)(C(=O)O)CC[C@]3(C)CC[C@]12C [CEL, Celastrol]
AR protein
  AR protein level: downregulated the protein level of AR

## CNC(=O)c1ccc(N2C(=S)N(c3ccc(C#N)c(C(F)(F)F)c3)C(=O)C2(C)C)cc1F [MDV, MDV3100]
LNCaP-MDV3100-R cells
  cell growth (SRB): totally resistant
VCaP xenografts
  response of xenografts: still responded
[1]
  reduction of tumour volume: 15%
LNCaP cells
  cell growth (SRB): effectively blocked cell growth
c4-2b cells
  cell growth (SRB): could not significantly inhibit cell growth
22RV1 cells
  cell growth (SRB): could not significantly inhibit cell growth
PSA mRNA; 22RV1, 10 nM R1881, 10 μM MDV or 0.2 μM AIL
  PSA mRNA level in the presence of R1881: decreased
PSA mRNA; 22RV1, no R1881, 10 μM MDV or 0.2 μM AIL
  PSA mRNA level in the absence of R1881: no effect
